From ChEMBL document CHEMBL1201862, “PubChem BioAssay data set” (2004)
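Growth conditions: 96-well plates. Treatment: test compound, 48 hours, 5 concentrations. Analysis: linear interpolation between bracketing concentrations; unreached endpoints set to highest concentration. GI50 is the concentration that inhibits growth by half.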 The source made the active and inactive calls. Rule as the data show it: active = GI50 up to about 1.1 µM and inactive = higher. Non-standard residues stand in square brackets, D forms with d. Residues, ends and D or L forms follow the SMILES beside them. ξ: configuration not given here. *: point of attachment. ξF = NC(Cc1ccccc1)C(=O)O; Cbz = O=C(OCc1ccccc1)*

What was measured:
Experiment in all cases: inhibition of tumour cell growth, NCI panel, 48 h
[1] = tested on: UO-31
[2] = tested on: COLO 205
[3] = tested on: SNB-19
[4] = tested on: A498
[5] = tested on: SW-620
[6] = tested on: OVCAR-4
[7] = tested on: K562
[8] = tested on: HCT-15
[9] = tested on: CCRF-CEM
[10] = tested on: 786-0
[11] = tested on: HOP-92
[12] = tested on: DU-145
[13] = tested on: HOP-62
[14] = tested on: MCF7
[15] = tested on: UACC-257
[16] = tested on: SF-295
[17] = tested on: SK-OV-3
[18] = tested on: MOLT-4
[19] = tested on: NCI-H226

O=C(C=P(c1ccccc1)(c1ccccc1)c1ccccc1)C12CC3CC(CC(C3)C1)C2
GI50 [1]: 14.6 µM (inactive)
GI50 [2]: 11.9 µM (inactive)
GI50 [3]: 12.6 µM (inactive)
GI50 [4]: 18.8 µM (inactive)
GI50 [5]: 16.1 µM (inactive)
GI50 [6]: 18.7 µM (inactive)
GI50 [7]: < 0.01 µM (active)
GI50 [8]: 13.4 µM
GI50 [9]: 14.4 µM (inactive)
GI50 [10]: 17.3 µM (inactive)
GI50 [11]: 20.5 µM (inactive)
GI50 [12]: 19.1 µM (inactive)
GI50 [13]: 17.2 µM (inactive)
GI50 [14]: 17 µM (inactive)
GI50 [15]: 17.2 µM (inactive)

Oc1c(Br)cc(/C=C/c2cccc(/C=C/c3cc(Br)c(O)c(Br)c3)n2)cc1Br
GI50 [1]: 15.1 µM (inactive)
GI50 [2]: 14.6 µM (inactive)
GI50 [3]: 9.98 µM (inactive)
GI50 [4]: 8.2 µM (inactive)
GI50 [5]: 17.7 µM (inactive)
GI50 [16]: 7.87 µM (inactive)
GI50 [6]: 13.3 µM (inactive)
GI50 [17]: 20.6 µM (inactive)
GI50 [7]: 3.3 µM (inactive)
GI50 [8]: 6.22 µM
GI50 [10]: 14.8 µM (inactive)
GI50 [11]: 12.1 µM (inactive)
GI50 [12]: < 0.01 µM (active)
GI50 [13]: 31.6 µM (inactive)
GI50 [14]: 15.5 µM (inactive)
GI50 [18]: 3.43 µM (inactive)
GI50 [15]: 15.7 µM (inactive)

CCCCNC(=S)Nc1nc(C(=O)NNC(=S)Nc2ccccc2)cs1
GI50 [1]: > 100 µM (inactive)
GI50 [2]: 32.7 µM (inactive)
GI50 [3]: > 100 µM (inactive)
GI50 [4]: 33.1 µM (inactive)
GI50 [5]: > 100 µM (inactive)
GI50 [16]: > 100 µM (inactive)
GI50 [6]: > 100 µM (inactive)
GI50 [17]: > 100 µM (inactive)
GI50 [8]: > 100 µM
GI50 [9]: > 100 µM (inactive)
GI50 [10]: 40.1 µM (inactive)
GI50 [11]: 21.4 µM (inactive)
GI50 [12]: > 100 µM (inactive)
GI50 [13]: > 100 µM (inactive)
GI50 [19]: > 100 µM (inactive)
GI50 [14]: > 100 µM (inactive)
GI50 [18]: > 100 µM (inactive)
GI50 [15]: > 100 µM (inactive)

CCOC(=O)CNC(=O)C(Cc1ccccc1)NC(=O)OCc1ccccc1 (configuration not stated) (Cbz-[ξF]-Gly-OEt)
GI50 [1]: > 100 µM (inactive)
GI50 [2]: > 100 µM (inactive)
GI50 [3]: > 100 µM (inactive)
GI50 [4]: 53.8 µM (inactive)
GI50 [5]: > 100 µM (inactive)
GI50 [16]: > 100 µM (inactive)
GI50 [17]: > 100 µM (inactive)
GI50 [7]: > 100 µM (inactive)
GI50 [8]: > 100 µM
GI50 [9]: > 100 µM (inactive)
GI50 [10]: > 100 µM (inactive)
GI50 [11]: > 100 µM (inactive)
GI50 [12]: > 100 µM (inactive)
GI50 [13]: > 100 µM (inactive)
GI50 [19]: > 100 µM (inactive)
GI50 [14]: > 100 µM (inactive)
GI50 [18]: > 100 µM (inactive)

C=CCN1C[C@H](C)N([C@H](c2ccc(C(=O)N(CC)CCO)cc2)c2cccc(OC)c2)C[C@H]1C
GI50 [1]: > 100 µM (inactive)
GI50 [2]: 43.5 µM (inactive)
GI50 [3]: > 100 µM (inactive)
GI50 [4]: 76.6 µM (inactive)
GI50 [5]: > 100 µM (inactive)
GI50 [16]: > 100 µM (inactive)
GI50 [6]: > 100 µM (inactive)
GI50 [17]: 71.8 µM (inactive)
GI50 [8]: > 100 µM
GI50 [10]: > 100 µM (inactive)
GI50 [11]: 13.6 µM (inactive)
GI50 [12]: > 100 µM (inactive)
GI50 [13]: > 100 µM (inactive)
GI50 [19]: 50.1 µM (inactive)
GI50 [14]: 92.9 µM (inactive)
GI50 [18]: 51.5 µM (inactive)
GI50 [15]: 47 µM (inactive)

CC(=O)C1COC(O)C1C (configuration not stated)
GI50 [1]: 17.7 µM (inactive)
GI50 [2]: 17 µM (inactive)
GI50 [3]: 31.1 µM (inactive)
GI50 [4]: 56.2 µM (inactive)
GI50 [5]: 18 µM (inactive)
GI50 [16]: 26.1 µM (inactive)
GI50 [17]: 31 µM (inactive)
GI50 [7]: 26.5 µM (inactive)
GI50 [8]: 18.5 µM
GI50 [9]: 13.5 µM (inactive)
GI50 [10]: 21.3 µM (inactive)
GI50 [11]: 27.2 µM (inactive)
GI50 [12]: 28.3 µM (inactive)
GI50 [13]: 16.3 µM (inactive)
GI50 [19]: 21.4 µM (inactive)
GI50 [14]: 20.7 µM (inactive)
GI50 [18]: 17.9 µM (inactive)
GI50 [15]: 32.2 µM (inactive)
